Test results taken from US20210309619A1, “ISOXAZOLIN-5-ONE DERIVATIVES AND HERBICIDES CONTAINING THE SAME AS ACTIVE INGREDIENTS” (HOKKO CHEMICAL INDUSTRY CO., LTD., priority 2018, published 2021).

Columns and labels:
Assay type in all cases: in vivo
southern crabgrass [1] = experiment: Herbicidal effect test by treatment of stem and leaf in dry field farming (Test Example 4); settings: 120 g/10 a, stem and leaf treatment seven days after seeding, 14 days after treatment
Excerpt: (§1) Herbicidal Rate (%)={1−(Average Dry Weight (g) of Plant of Treated Area)/(Average Dry Weight (g) of Plant of Untreated Area)}×100 [Math. 1] Pots with a size of 36 cm^2 were filled with a dry field farming soil (alluvium). The soil of the top layer of 1 cm and seeds of weeds, namely southern crabgrass, Echinochloa crus-galli, Chenopodium album and Amaranthus viridis, 20 seeds each, were evenly mixed, and the top layer was gently pressed. Emulsions prepared using the compounds in Table 6 below according to Formulation Example 5 were diluted with water seven days after seeding, and the water-diluted agent solutions were sprayed to the soil surfaces at a ratio of 100 liters per 10 ares. A converted amount of the applied active ingredient corresponded to 120 g per 10 ares. The herbicidal effects were evaluated by the same standard as that in Test Example 1, 14 days after the treatment with the agents. In this regard, the compound numbers in Table 6 are the same as those in Table 1 and Table 2 above.

Amaranthus viridis [2] = experiment: as above; settings: 120 g/10 a, stem and leaf treatment seven days after seeding, 14 days after treatment
Excerpt: as §1

Chenopodium album [3] = experiment: as above; settings: 120 g/10 a, stem and leaf treatment seven days after seeding, 14 days after treatment
Excerpt: as §1

Echinochloa crus-galli [4] = experiment: as above; settings: 120 g/10 a, stem and leaf treatment seven days after seeding, 14 days after treatment
Excerpt: as §1

Lindernia pyxidaria [5] = experiment: Herbicidal effect test by treatment during growing period in paddy rice cultivation (Test Example 2); settings: 120 g/10 a, treated seven days after seeding, 14 days after treatment
Excerpt: (§2) Herbicidal Rate (%)={1−(Average Dry Weight (g) of Plant of Treated Area)/(Average Dry Weight (g) of Plant of Untreated Area)}×100 [Math. 1]
(§3) Wagner pots with an area of 1/10000 ares were filled with a paddy soil, and a compound fertilizer (N:P:K=17:17:17) was mixed after addition of water, followed by soil puddling. Then, Echinochloa crus-galli, broad leaf weeds (Lindernia pyxidaria and Monochoria vaginalis) and Scirpus juncoides, 30 seeds each, were sown in a depth of 0 to 1 cm. Water was poured immediately after seeding, and the water depth was kept at about 3 cm. A subsequent management was conducted in a glass greenhouse. Emulsions prepared using the compounds in Table 4 below according to Formulation Example 5 were diluted with water seven days after seeding, and a certain amount of the water-diluted agent solutions were dropped. A converted amount of the applied active ingredient corresponded to 120 g per 10 ares. The test was conducted in a double system per one agent solution concentration area, and the herbicidal rates (%) were determined by the equation (Math. 1) 14 days after the treatment with the agents. In this regard, the compound numbers in Table 4 are the same as those in Table 1 and Table 2 above.

Echinochloa crus-galli [6] = experiment: as above; settings: 120 g/10 a, treated seven days after seeding, 14 days after treatment
Excerpt: as §2, §3

Scirpus juncoides [7] = experiment: as above; settings: 120 g/10 a, treated seven days after seeding, 14 days after treatment
Excerpt: as §2, §3

Monochoria vaginalis [8] = experiment: as above; settings: 120 g/10 a, treated seven days after seeding, 14 days after treatment
Excerpt: as §2, §3

southern crabgrass [9] = experiment: Herbicidal effect test by treatment of dry field farming soil (Test Example 3); settings: 120 g/10 a, sprayed one day after seeding, 14 days after treatment
Excerpt: as §1, with “Table 5” for “Table 6”, “water one day” for “water seven days”

Amaranthus viridis [10] = experiment: as above; settings: 120 g/10 a, sprayed one day after seeding, 14 days after treatment
Excerpt: as §1, with “Table 5” for “Table 6”, “water one day” for “water seven days”

Chenopodium album [11] = experiment: as above; settings: 120 g/10 a, sprayed one day after seeding, 14 days after treatment
Excerpt: as §1, with “Table 5” for “Table 6”, “water one day” for “water seven days”

Echinochloa crus-galli [12] = experiment: as above; settings: 120 g/10 a, sprayed one day after seeding, 14 days after treatment
Excerpt: as §1, with “Table 5” for “Table 6”, “water one day” for “water seven days”

Lindernia pyxidaria [13] = experiment: Herbicidal effect test by treatment of rice paddy soil (Test Example 1); settings: 120 g/10 a, treated immediately after seeding, 14 days after treatment
Experimental: (§4) Wagner pots with an area of 1/10000 ares were filled with a paddy soil, and a compound fertilizer (N:P:K=17:17:17) was mixed after water was added, followed by soil puddling. Then, Echinochloa crus-galli, broad leaf weeds (Lindernia pyxidaria and Monochoria vaginalis) and Scirpus juncoides, 30 seeds each, were sown in a depth of 0 to 1 cm. Water was poured immediately after seeding, and the water depth was kept at about 3 cm. A subsequent management was conducted in a glass greenhouse. Immediately after that, emulsions prepared using the compounds in Table 3 below according to Formulation Example 5 were diluted with water, and a certain amount of the water-diluted agent solutions were dropped. A converted amount of the applied active ingredient corresponded to 120 g per 10 ares.
(§5) This test was conducted in a double system per one agent solution concentration area, and the herbicidal rates (%) were determined by the following equation (Math. 1) 14 days after the treatment with the agents.
as §2

Echinochloa crus-galli [14] = experiment: as above; settings: 120 g/10 a, treated immediately after seeding, 14 days after treatment
Experimental: as §4, §5, §2

Scirpus juncoides [15] = experiment: as above; settings: 120 g/10 a, treated immediately after seeding, 14 days after treatment
Experimental: as §4, §5, §2

Monochoria vaginalis [16] = experiment: as above; settings: 120 g/10 a, treated immediately after seeding, 14 days after treatment
Experimental: as §4, §5, §2

Row | Compound | Herbicidal rate, southern crabgrass (southern crabgrass [1]) | Herbicidal rate, Amaranthus viridis (Amaranthus viridis [2]) | Herbicidal rate, Chenopodium album (Chenopodium album [3]) | Herbicidal rate, Echinochloa crus-galli (Echinochloa crus-galli [4]) | Herbicidal rate, Lindernia pyxidaria (Lindernia pyxidaria [5]) | Herbicidal rate, Echinochloa crus-galli (Echinochloa crus-galli [6]) | Herbicidal rate, Scirpus juncoides (Scirpus juncoides [7]) | Herbicidal rate, Monochoria vaginalis (Monochoria vaginalis [8]) | Herbicidal rate, southern crabgrass (southern crabgrass [9]) | Herbicidal rate, Amaranthus viridis (Amaranthus viridis [10]) | Herbicidal rate, Chenopodium album (Chenopodium album [11]) | Herbicidal rate, Echinochloa crus-galli (Echinochloa crus-galli [12]) | Herbicidal rate, Lindernia pyxidaria (Lindernia pyxidaria [13]) | Herbicidal rate, Echinochloa crus-galli (Echinochloa crus-galli [14]) | Herbicidal rate, Scirpus juncoides (Scirpus juncoides [15]) | Herbicidal rate, Monochoria vaginalis (Monochoria vaginalis [16])
1 | COC1CCCC1n1oc(=O)c(Cc2ccccc2N(C(=O)OCC(C)C)S(=O)(=O)C(F)(F)F)c1C (stereo not shown) [Compound 248] | 80% | 90% | 90% | 90% | 80% | 100% | 90% | 90% | 90% | 60% | 60% | 90% | 100% | 100% | 100% | 100%
2 | COC1CCCCC1n1oc(=O)c(Cc2ccccc2N(S(=O)(=O)C(F)(F)F)S(=O)(=O)C(F)(F)F)c1C (stereo not shown) [Compound 351, 1,1,1-trifluoro-N-[2-[[(2-methoxycyclohexyl)-3-methyl-5-oxoisoxazol-4-yl]methyl]phenyl]-N-(trifluoromethylsulfonyl)methanesulfonamide] | 80% | 80% | 80% | 90% | 80% | 100% | 90% | 80% | 90% | 90% | 60% | 90% | 100% | 100% | 90% | 100%
3 | COC1CCCC1n1oc(=O)c(Cc2ccccc2N(C(C)=O)S(=O)(=O)C(F)(F)F)c1C (stereo not shown) [Compound 107, N-[2-[[(2-methoxycyclopentyl)-3-methyl-5-oxoisoxazol-4-yl]methyl]phenyl]-N-(trifluoromethylsulfonyl)acetamide] | 80% | 90% | 90% | 90% | 80% | 100% | 90% | 90% | 90% | 60% | 60% | 90% | 100% | 100% | 100% | 100%
4 | COC1CCCC1n1oc(=O)c(Cc2ccccc2N(C(=O)C(C)C)S(=O)(=O)C(F)(F)F)c1C (stereo not shown) [Compound 113] | 80% | 90% | 90% | 90% | 80% | 100% | 90% | 90% | 90% | 60% | 60% | 90% | 100% | 100% | 100% | 100%
5 | COC1CCCCC1n1oc(=O)c(Cc2ccccc2N(C(=O)OCC(C)C)S(=O)(=O)C(F)(F)F)c1C (stereo not shown) [Compound 250] | 90% | 90% | 90% | 90% | 90% | 100% | 90% | 90% | 90% | 90% | 60% | 90% | 100% | 100% | 100% | 100%
6 | COC1CCCCC1n1oc(=O)c(Cc2ccccc2N(C(=O)Oc2ccccc2)S(=O)(=O)C(F)(F)F)c1C (single isomer, unassigned) [Compound 289] |  | 90% | 90% |  | 90% |  | 90% | 90% | 90% | 40% | 60% | 90% | 100% | 100% | 100% | 100%
7 | CCOC(=O)N(c1ccccc1Cc1c(C)n(C2CCCCC2OC)oc1=O)S(=O)(=O)C(F)(F)F (stereo not shown) [Compound 190, ethyl N-[2-[[(2-methoxycyclohexyl)-3-methyl-5-oxoisoxazol-4-yl]methyl]phenyl]-N-(trifluoromethylsulfonyl)carbamate] | 90% | 90% | 90% | 90% | 80% | 100% | 90% | 90% | 90% | 90% | 60% | 90% | 100% | 100% | 100% | 100%
